Like-named read-outs stand apart in the source and are kept apart here.

Series [1] in a line: Single ascending dose study: safety and tolerability (adverse events, ECG, vital signs, laboratory parameters). The series is classed as in vivo, human. The source says: (§1) Healthy male and non-pregnant female volunteers over 18 years of age were eligible to participate. Subjects were not permitted to take any medications 2 weeks prior to or during the study. Exclusion criteria included known cardiac, kidney, or hepatic disease; presence of diseases that could manifest morbidity or symptoms/signs that could confound interpretation of the study results; the need to discontinue any drug administered as standard of care treatment; and the unwillingness or inability to use approved birth-control methods.
(§2) This study was an open-label, single ascending dose study designed to assess pharmacokinetics, safety, and tolerability of single doses of 2-hydroxybenzylamine acetate. A 3+3 clinical trial design with a modified Fibonacci sequence dosing scheme^14 was used with a starting dose of 50 mg; thereafter, dosages were increased to 100, 200, 330, 550, and 825 mg. These doses of 2-hydroxybenzylamine acetate correspond to 34, 68, 136, 224, 373, and 560 mg 2-hydroxybenzylamine. Each dose escalation was initiated only after reviewing safety data from all subjects receiving the previous dose.
(§3) Subjects were admitted to the Vanderbilt University Clinical Research Center and remained on the unit for 24 hours after administering 2-hydroxybenzylamine acetate orally in capsules to participants. […] Subjects were monitored at protocol-defined intervals for 24 hours after administration of 2-hydroxybenzylamine. Safety assessments included vital signs (heart rate, respiration rate, blood pressure, and SpO2), clinical laboratory parameters (blood biochemistry, hematology, and urinalysis), 12-lead ECGs, and potential adverse event assessments. All adverse events were recorded, regardless of whether they were considered study-related.

Series [2] can be described thus: Half-life of SA in the blood. The series is classed as in vivo. The note with it: estimated.
For a further series, the system named is sodium channel. The note with it: cited from earlier work.
The subject of series [3] is paws injected with carrageenan. The note with it: mice, intraperitoneally 200 mg/kg; cited from earlier work.
In a further series the test system is HepG2 cells. The note with it: cited from earlier work.
Series [4] is described as follows: Single ascending dose study: plasma pharmacokinetics of 2-hydroxybenzylamine. The series is classed as in vivo, human. The note with it: for Cmax / Tmax / AUC(0-inf) / half-life: both sexes, human, plasma; for AUC(0-inf): read-out: AUC (zero to infinity).
Text: as §1
2-Hydroxybenzylamine (as the acetate salt, CAS 1206675-01-5) was obtained from TSI (China) Co., Ltd. (Shanghai, China). A commercial production lot was used (Lot 16120312). Our laboratory verified the purity of the commercial lot to be >99% via HPLC and NMR spectroscopy. Hard gel capsules (Capsugel, Jiangsu, China) containing 50, 110, and 412.5 mg of 2-hydroxybenzylamine acetate (corresponding to 34, 75, and 281 mg 2-hydroxybenzylamine) were prepared by TSI (China) Co., Ltd. Determinations of average fill weight, uniformity of weight, disintegration, 2-hydroxybenzylamine content, acetate content, and microbial and analytical tests were within all specification limits.
as §2, §3
Blood samples for pharmacokinetic analyses were collected at baseline, 0.25, 0.5, 1, 2, 6, 4, 8, and 24 hours after 2-hydroxybenzylamine acetate administration for all dose levels. The 0.25-hour sample was only collected for dosages≤200 mg, and the 6-h sample was only collected for dosages≥330 mg.
[^2H4]-2-hydroxybenzylamine, prepared by Dr. Venkataraman Amarnath as previously described^11, was used as an internal standard. An internal standard solution (100 ng/mL) of ([^2H4]-2-hydroxybenzylamine was prepared in acetonitrile and added to all standards, quality control samples, and patient samples. Standard and quality control samples of 1 mg/mL 2-hydroxybenzylamine were prepared in water. Eight standard curve samples (5, 10, 20, 100, 200, 1000, 2000, and 5000 ng/mL) were prepared with blank human plasma (Bioreclamation, Westbury, NY). In addition, three quality control samples (15, 300, and 3000 ng/mL) were prepared in blank human plasma. Plasma samples were allowed to thaw at room temperature and then vortexed. Internal standard solution (400 μL) and 100 μL of either plasma, quality controls, or standards were added and mixed in a protein precipitation filter 96-well plate (Phenomenex, Torrance, CA). The solution was eluted into a 96-well plate using a positive pressure manifold and then dried under nitrogen gas at 40° C. The samples were then reconstituted in 97/3 v/v water/acetonitrile with 10 mM ammonium formate for analysis. […]

The conditions of series [5]: mice, drinking water, 1 to 10 grams per liter; cited from earlier work.
The next series has as its system γKA protein adducts. The note with it: compared with PM; cited from earlier work.
For series [6] the following is noted: in vivo; cited from earlier work.
Where [7] appears, read: single oral dose 50 mg 2-hydroxybenzylamine acetate, mean, n = 3.
[8] abbreviates: single oral dose 100 mg 2-hydroxybenzylamine acetate, mean, n = 3.

For `CC(=O)O.NCc1ccccc1O` [2-Hydroxybenzylamine acetate, 2-hydroxybenzylamine acetate], in [1] (both, human, in vivo, 24 h), the Abdominal bloating is given as 1 n (%), the Any event is 5 n (%), the Frequent urination is given as 2 n (%) and the Headache is on record as 1 n (%). Also, in series [1] (both, human, in vivo, 24 h), the Itchy throat is reported as 1 n (%), the Rash was 1 n (%) and the Sleepiness was 1 n (%).

On to `NCc1ccccc1O` [2-hydroxybenzylamine], for which, in [2], the half-life was around 2 h. Moreover, the “protection of sodium channel function inhibited by γKA or oxidants” value in the series with sodium channel was “protects”. The “edema in paws injected with carrageenan” value in series [3] is “decreased edema”. The “protection of HepG2 cells from cytotoxicity induced by hydrogen peroxide” value in the series with HepG2 cells is listed as “protects”. Further, the “serious adverse events or deaths” value in series [1] (all doses) is on record as “no serious adverse events or deaths”. Further, in series [1] (both, human, in vivo, 24 h), the “participants who reported at least 1 adverse event” value stood at 28% and the “subjects with frequent urination (most common adverse event)” value worked out at 11%. In series [1] (in vivo), the “adverse event frequency or severity versus dose” value is listed as “no dose-dependent increase”; the “changes in ECG recordings, vital signs, or laboratory parameters” value is reported as “No clinically significant changes”; the “intensity of adverse events” value was “mild”; the study-related adverse events result is given as “No adverse events were determined to be study-related”. In series [4] (setting [7]), the Cmax came out at 90 ng/mL, the Tmax amounted to 1.33 h, the AUC(0-inf) was determined as 396 ng·h/mL and the AUCextrap was 9.1%. Further, in series [4] (single oral dose 50 mg 2-hydroxybenzylamine acetate, mean, n = 3, read-out: Half-life (converted)), the half-life is 2.04 h. In series [4] (setting [8]), the Cmax was 156 ng/mL, the Tmax came to 1.33 h, the AUC(0-inf) came to 622 ng·h/mL and the AUCextrap came out at 11.2%. Moreover, in series [4] (single oral dose 100 mg 2-hydroxybenzylamine acetate, mean, n = 3, read-out: Half-life (converted)), the half-life was 2.33 h. Further, the half-life in [4] (single oral doses, overall mean, read-out: mean half-life (converted)) is 2.1 h. Moreover, the “Cmax and AUC versus dose” value in [4] (single oral doses 50-825 mg 2-hydroxybenzylamine acetate) is on record as “dose-dependent changes”. Also, the tissue concentrations in series [5] was 10 to 500 µM. Also, in the series with γKA protein adducts, the “inhibition of γKA protein adducts in cells” value is listed as “significantly better inhibitor of γKA protein adducts in cells than PM”.

For the molecule `Cc1ncc(CO)c(CN)c1O` [PM, pyridoxamine], the “protection of HepG2 cells from cytotoxicity induced by hydrogen peroxide” value in the series on HepG2 cells is recorded as “ineffective”.

Turning to `O=C(O)c1ccccc1O` [salicylic acid], in series [6], the “salicylate in the blood bound to protein” value is reported as 80-90%.

In general, half-life refers to the time in which the quantity being followed falls by half. The term Cmax denotes the maximum level reached in the sampled fluid or tissue. Broadly, the Tmax is the time from dosing to the highest level.

The values are drawn from patent publication US12435025B2, “Triphenylphosphonium-tethered salicylamine derivatives” (MTI BIOTECH, INC., priority 2019, dated 2025).
